Values after ≈ are worked out from the molar mass of the structure shown. Starred links: 1 amine or outer side, 2 acyl side, 3 side chain; linkers in the order of their positions; H or OH if unused. Positions of bridges follow the written chain, without caps; N, C: chain ends. Non-standard residues stand in square brackets, D forms with d. Residues, ends and D or L forms follow the SMILES beside them. *: point of attachment. X2 = CC(C)[C@H](C)[C@@H](C(=O)[*:2])N(C)[*:1]; d(cisHyp) = O=C(O)[C@H]1C[C@@H](O)CN1; X1 = CC(C)C(C)C(C(=O)[*:2])N(C)[*:1]; Picolinoyl(3-OH) = O=C(c1ncccc1O)*; NMePhg = CN[CH](C(=O)O)c1ccccc1; Hyp = O=C(O)[CH]1C[CH](O)CN1; Abu = CC[CH](N)C(=O)O; Sar = CNCC(=O)O
How the values were obtained:
Sarcina lutea = assay: MIC, tube dilution method (incl. synergism with griseoviridin); type: cell-based
[1] = system: Mycoplasma gallisepticum KP13; assay: MIC, dilution method, Mycoplasma; type: cell-based; parameters: unit not given beside the values; settings: Table 4; PPLO enrichment broth (Eiken)
Procedure: (§1) The MIC were determined by the dilution method.
Medium (1): PPLO enrichment broth (Eiken, Japan)
(§2) was tested in vitro agains several Mycoplasma strains.

[2] = system: Mycoplasma agalactiae PG 2; assay: MIC, dilution method, Mycoplasma; type: cell-based; settings: Table 4; PPLO broth (Chanock's medium; Difco)
Procedure: as §1
(§3) (2): PPLO broth (Chanock's medium; Difco)
as §2

Mycoplasma fermentans = assay: MIC, dilution method, Mycoplasma; type: cell-based; settings: Table 4; PPLO broth (Chanock's medium; Difco)
Procedure: as §1, §3, §2

[3] = system: Mycoplasma pulmonis PG 22; assay: MIC, dilution method, Mycoplasma; type: cell-based; settings: Table 4; PPLO broth (Chanock's medium; Difco)
Procedure: as §1, §3, §2

Staphylococcus aureus [4] = assay: MIC, tube dilution method; type: cell-based; settings: BHI broth
Staphylococcus sp. = assay: MIC, tube dilution method; type: cell-based; settings: BHI broth
[5] = system: Diplococcus pneumoniac type 1; assay: MIC, tube dilution method; type: cell-based, Diplococcus pneumoniae; settings: BHI broth containing 10% horse blood
Streptococcus pyogenes = assay: MIC, tube dilution method; type: cell-based; settings: BHI broth containing 10% horse blood
[6] = system: Bacillus subtilis ATCC 6633; assay: MIC, tube dilution method; type: cell-based; settings: BHI broth
Salmonella gallinanum = assay: MIC, tube dilution method; type: cell-based; settings: BHI broth
Escherichia coli = assay: MIC, tube dilution method; type: cell-based; settings: BHI broth
Pseudeomonas aeruginosa = assay: MIC, tube dilution method; type: cell-based; settings: BHI broth
Proteus vulgaris = assay: MIC, tube dilution method; type: cell-based; settings: BHI broth
Candida albicans = assay: MIC, tube dilution method; type: cell-based; settings: malt extract-yeast extract medium
Solubility in solvents = type: physicochemical; settings: for solubility in organic solvents: methanol, ethanol, propanols, n-butanol, dioxane, acetates, ketones, benzene, toluene, chlorinated solvents, DMF, DMSO
Staphylococcus aureus [7] = assay: MIC repeated with a far lower dilution rate; type: cell-based; settings: far lower dilution rate, brain heart infusion broth
From the text: This MIC experiment was based on the two-fold dilutions. To differentiate neoviridogrisein II and viridogrisein in their antibiotic activity, the MIC determination was repeated with a far lower dilution rate.
Medium: brain heart infusion broth

SMILES	MIC [1]	MIC [2]	MIC (Mycoplasma fermentans)	MIC [3]	MIC (Staphylococcus aureus [4]; strain 209P) [µg/mL]	MIC (Staphylococcus aureus [4]; strain (BX-1633)(PC)r) [µg/mL]	MIC (Staphylococcus aureus [4]; strain (EM)r) [µg/mL]	MIC (Staphylococcus aureus [4]; strain (EM, CM, SM, PC, TC)r) [µg/mL]	MIC (Staphylococcus aureus [4]; strain (EM, OM)r) [µg/mL]	MIC (Staphylococcus aureus [4]; strain (PC, EM, NM)r) [µg/mL]	MIC (Staphylococcus aureus [4]; strain (PC, TC, EM, LM)r 1) [µg/mL]	MIC (Staphylococcus aureus [4]; strain (PC, TC, EM, LM)r 2) [µg/mL]	MIC (Staphylococcus aureus [4]; strain (SM, STH)r) [µg/mL]	MIC (Staphylococcus aureus [4]; strain (STH)r) [µg/mL]	MIC (Staphylococcus aureus [4]; strain (TC, CP, PC)r) [µg/mL]	MIC (Staphylococcus aureus [4]; strain (TC, EM, LM, CP)r) [µg/mL]	MIC (Staphylococcus aureus [4]; strain Russell(PC)r) [µg/mL]	MIC (Staphylococcus aureus [4]; strain Smith) [µg/mL]	MIC (Staphylococcus sp.; Staphylococcus sp. (PC)r) [µg/mL]	MIC (Staphylococcus sp.; Staphylococcus sp.) [µg/mL]	other results
C[C@@H]1C/C=C2\SC[C@@H](NC(=O)c3coc(n3)C[C@H](O)C[C@H](O)/C=C/C=C/CNC2=O)C(=O)O1 [GV, griseoviridin]	0.10	3.13	< 0.05	6.25	–	–	–	–	–	–	–	–	–	–	–	–	–	–	–	–	MIC (Sarcina lutea; Table 3, varied ratios of neoviridogriseins mixture to griseoviridin, tube dilution, brain heart infusion broth): 0.250 µg/mL
CCC1NC(=O)C(C(C)C(C)C)N(C)C(=O)CN(C)C(=O)C2CC(O)CN2C(=O)C(CC(C)C)NC(=O)C(NC(=O)c2ncccc2O)C(C)OC(=O)C(c2ccccc2)N(C)C1=O (centres unmarked) [NV III, neoviridogrisein III] ({Picolinoyl(3-OH)}-TL[Hyp][Sar][X1][Abu][NMePhg]; ester 1-C; configuration not given here)	–	–	–	–	0.2 (≈ 0.224 µM)	0.4 (≈ 0.448 µM)	0.4 (≈ 0.448 µM)	0.4 (≈ 0.448 µM)	0.8 (≈ 0.896 µM)	0.4 (≈ 0.448 µM)	6.25 (≈ 7 µM)	6.25 (≈ 7 µM)	0.2 (≈ 0.224 µM)	1.6 (≈ 1.79 µM)	0.4 (≈ 0.448 µM)	6.25 (≈ 7 µM)	0.4 (≈ 0.448 µM)	0.2 (≈ 0.224 µM)	0.8 (≈ 0.896 µM)	0.8 (≈ 0.896 µM)	MIC [5]: 0.2 µg/mL (≈ 0.224 µM); MIC (Streptococcus pyogenes): 0.4 µg/mL (≈ 0.448 µM); MIC (Sarcina lutea; Table 1, BHI broth): 0.4 µg/mL; MIC [6]: 0.8 µg/mL (≈ 0.896 µM); MIC (Salmonella gallinanum): > 25 µg/mL; MIC (Escherichia coli): > 25 µg/mL; MIC (Pseudeomonas aeruginosa): > 25 µg/mL; MIC (Proteus vulgaris): > 25 µg/mL; MIC (Candida albicans): > 25 µg/mL; solubility in organic solvents (Solubility in solvents): soluble; solubility in petroleum ether and hexane (Solubility in solvents): practically insoluble; solubility in water and ethyl ether (Solubility in solvents): hardly soluble
CC(C)C[C@H]1NC(=O)[C@@H](NC(=O)c2ncccc2O)[C@@H](C)OC(=O)[C@H](c2ccccc2)N(C)C(=O)[C@H](C)NC(=O)[C@H]([C@@H](C)C(C)C)N(C)C(=O)CN(C)C(=O)[C@H]2C[C@@H](O)CN2C1=O [VG, viridogrisein] ({Picolinoyl(3-OH)}-T[dL][d(cisHyp)][Sar][X2]A[NMePhg]; ester 1-C)	0.10	0.78	< 0.05	1.56	0.2 (≈ 0.228 µM)	0.4 (≈ 0.455 µM)	0.4 (≈ 0.455 µM)	0.4 (≈ 0.455 µM)	0.8 (≈ 0.91 µM)	0.8 (≈ 0.91 µM)	6.25 (≈ 7.11 µM)	6.25 (≈ 7.11 µM)	0.4 (≈ 0.455 µM)	1.6 (≈ 1.82 µM)	0.4 (≈ 0.455 µM)	6.25 (≈ 7.11 µM)	0.4 (≈ 0.455 µM)	0.4 (≈ 0.455 µM)	0.4 (≈ 0.455 µM)	0.8 (≈ 0.91 µM)	MIC [5]: 0.4 µg/mL (≈ 0.455 µM); MIC (Streptococcus pyogenes): 0.4 µg/mL (≈ 0.455 µM); MIC (Sarcina lutea; Table 1, BHI broth): 0.2 µg/mL; MIC [6]: 0.8 µg/mL (≈ 0.91 µM); MIC (Salmonella gallinanum): > 25 µg/mL; MIC (Escherichia coli): > 25 µg/mL; MIC (Pseudeomonas aeruginosa): > 25 µg/mL; MIC (Proteus vulgaris): > 25 µg/mL; MIC (Candida albicans): > 25 µg/mL; solubility in organic solvents (Solubility in solvents): soluble; solubility in petroleum ether and hexane (Solubility in solvents): practically insoluble; solubility in water and ethyl ether (Solubility in solvents): hardly soluble; MIC (Staphylococcus aureus [7]; strain 209 P): 0.133 µg/mL (≈ 0.151 µM); MIC (Staphylococcus aureus [7]; strain (EM, CM, SM, PC, TC)r): 0.334 µg/mL (≈ 0.38 µM); MIC (Staphylococcus aureus [7]; strain (TC, CP, PC)r): 0.334 µg/mL (≈ 0.38 µM); MIC (Staphylococcus aureus [7]; strain Bx-1633(PC)r): 0.267 µg/mL (≈ 0.304 µM); MIC (Staphylococcus aureus [7]; strain Russell(PC)r): 0.267 µg/mL (≈ 0.304 µM); MIC (Staphylococcus aureus [7]; strain Smith): 0.267 µg/mL (≈ 0.304 µM)
